Assay results as given in the supplement of paper PMC5908809.

Legend:
[1] = tested on: normal NK cells expanded with K562-aAPC; experiment: percent inhibition of viability; higher = more inhibition; settings: 72 h, IL-2 2.5 ng/mL
Experimental: (§1)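 Drug sensitivity and resistance testing on K562-aAPC-expanded normal NK cells: 5 concentrations (10-fold steps over a 10,000-fold range), 72 h at 37 °C, viability by CellTiter-Glo normalised to DMSO and benzethonium chloride controls; DSS from the fitted curve.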

KAI3 (IL-2 2.5 ng/mL) [2] = experiment: drug sensitivity score (DSS) (DSS units); higher = more sensitive; extreme values may be limits of the assay; settings: 72 h
[3] = tested on: normal primary NK cells, pool 3 (3 donors) (IL-2 2.5 ng/mL); experiment: as above; settings: 72 h
KHYG-1 (IL-2 2.5 ng/mL) [4] = experiment: as above; settings: 72 h
[5] = tested on: normal primary NK cells, pool 2 (3 donors) (IL-2 2.5 ng/mL); experiment: as above; settings: 72 h
NKL (IL-2 2.5 ng/mL) [6] = experiment: as above; settings: 72 h
NK-92 (IL-2 2.5 ng/mL) [7] = experiment: as above; settings: 72 h
IMC-1 (IL-2 20 ng/mL) [8] = experiment: as above; settings: 72 h
[9] = tested on: normal primary NK cells, pool 1 (3 donors) (IL-2 2.5 ng/mL); experiment: as above; settings: 72 h
YT (IL-2 2.5 ng/mL) [10] = experiment: as above; settings: 72 h
SNK-6 (IL-2 2.5 ng/mL) [11] = experiment: as above; settings: 72 h
DERL-7 (IL-2 2.5 ng/mL) [12] = experiment: as above; settings: 72 h
NK-YS (IL-2 2.5 ng/mL) [13] = experiment: as above; settings: 72 h
[14] = tested on: normal primary NK cells, pool 1 (3 donors), resting (IL-2 0 ng/mL); experiment: as above; settings: 72 h
KAI3 (IL-2 2.5 ng/mL) [15] = experiment: percent inhibition of viability; higher = more inhibition; settings: 72 h
[16] = tested on: normal primary NK cells, pool 3 (3 donors) (IL-2 2.5 ng/mL); experiment: as above; settings: 72 h
KHYG-1 (IL-2 2.5 ng/mL) [17] = experiment: as above; settings: 72 h
[18] = tested on: normal primary NK cells, pool 2 (3 donors) (IL-2 2.5 ng/mL); experiment: as above; settings: 72 h
NKL (IL-2 2.5 ng/mL) [19] = experiment: as above; settings: 72 h
NK-92 (IL-2 2.5 ng/mL) [20] = experiment: as above; settings: 72 h
IMC-1 (IL-2 20 ng/mL) [21] = experiment: as above; settings: 72 h
[22] = tested on: normal primary NK cells, pool 1 (3 donors) (IL-2 2.5 ng/mL); experiment: as above; settings: 72 h
YT (IL-2 2.5 ng/mL) [23] = experiment: as above; settings: 72 h
SNK-6 (IL-2 2.5 ng/mL) [24] = experiment: as above; settings: 72 h
DERL-7 (IL-2 2.5 ng/mL) [25] = experiment: as above; settings: 72 h
NK-YS (IL-2 2.5 ng/mL) [26] = experiment: as above; settings: 72 h
[27] = tested on: normal primary NK cells, pool 1 (3 donors), resting (IL-2 0 ng/mL); experiment: as above; settings: 72 h
[28] = tested on: normal NK cells expanded with K562-aAPC; experiment: drug sensitivity score (DSS) (DSS units); higher = more sensitive; extreme values may be limits of the assay; settings: 72 h; IL-2 2.5 ng/mL
Experimental: as §1

Cc1csc(-c2nnc(Nc3ccc(Oc4ncccc4-c4ccnc(N)n4)cc3)c3ccccc23)c1 [AMG-900] (max concentration tested 1000 nM)
percent inhibition of viability [%]
Settings | 0.1 nM | 1 nM | 10 nM | 100 nM | 1000 nM
DERL-7 (IL-2 2.5 ng/mL) [25] | -3.26 | -1.85 | 31 | 70.8 | 53.9
IMC-1 (IL-2 20 ng/mL) [21] | -5.67 | -6.98 | 18.2 | 21.9 | 63.9
KAI3 (IL-2 2.5 ng/mL) [15] | -5.87 | -5.96 | 19.4 | 20.4 | 43.4
KHYG-1 (IL-2 2.5 ng/mL) [17] | -2.26 | -0.47 | 44.5 | 33.3 | 59.8
NK-92 (IL-2 2.5 ng/mL) [20] | -9.63 | -11.2 | 17.6 | 27.6 | 52.6
NK-YS (IL-2 2.5 ng/mL) [26] | -5.77 | -3.39 | 59.6 | 59.6 | 71.8
NKL (IL-2 2.5 ng/mL) [19] | -16.8 | -17.8 | -16.6 | -9.7 | -5.52
SNK-6 (IL-2 2.5 ng/mL) [24] | 15.5 | 7.4 | 68.4 | 57.2 | 72.8
YT (IL-2 2.5 ng/mL) [23] | -0.32 | -0.28 | 13 | 16 | 24.9
[1] | -2.04 | -5.9 | -2.98 | 39.7 | 33
[16] | -7.42 | 4.77 | -7.75 | -0.31 | -0.94
[18] | -8.07 | -6.23 | -6.7 | -3.83 | -5.92
[22] | -4.05 | -2.86 | -4.93 | -3.83 | -3.7
[27] | -1.37 | -7.12 | 5.07 | 10.8 | 11.6

Settings | drug sensitivity score
DERL-7 (IL-2 2.5 ng/mL) [12] | 17.1
IMC-1 (IL-2 20 ng/mL) [8] | 6.18
KAI3 (IL-2 2.5 ng/mL) [2] | 5.44
KHYG-1 (IL-2 2.5 ng/mL) [4] | 12.6
NK-92 (IL-2 2.5 ng/mL) [7] | 6.74
NK-YS (IL-2 2.5 ng/mL) [13] | 20.2
NKL (IL-2 2.5 ng/mL) [6] | 0
SNK-6 (IL-2 2.5 ng/mL) [11] | 23
YT (IL-2 2.5 ng/mL) [10] | 3.19
[3] | 0
[5] | 0
[9] | 0
[14] | 0.61
[28] | 6.8
